{
  "source": "paper PMC9652379",
  "about": "“Safety evaluations of a synthetic antimicrobial peptide administered intravenously in rats and dogs” (Scientific Reports, 2022)",
  "key": {"Sprague Dawley rats [1]": {"tested_on": "Sprague Dawley rats", "assay": "Dose range finding in rats: clinical signs, body weight, survival", "assay_type": "in vivo, rat", "procedure": "The purpose of this study was to determine the DRF of SET-M33 peptide when administered by intravenous bolus to Sprague Dawley rats. In order to identify a starting point for DRF, in Phase I of this study the peptide was administered once daily for 3 days at a constant dose of 20 mg/kg/day to six animals (three males and three females). […] No clinical signs were recorded in any animal 20–60 min after administration. Body weight of all animals in Phase I remained constant or decreased slightly during treatment.\nPhase II, where 10 animals/group (five males and five females) were used, included a control group and two dose groups (10 mg/kg/day and 20 mg/kg/day), that were injected once daily for seven days. […] At 20 mg/kg/day, additional clinical signs, including decreased activity, irregular and/or slow breathing, piloerection, partially closed eyelids, abnormal uncoordinated gait, reduced body tone and hunched posture, were observed during the 7 days. The mean body weight of males treated with 10 and 20 mg/kg/day declined slightly (6% and 5% less than control group, respectively).\nSprague Dawley rats were used for the toxicity studies. The animals were supplied by Envigo RMS S.L. All animals were 6–8 weeks old at the start of treatment and were allocated randomly to the treatment groups. […]\nA viability/mortality check was recorded at least twice daily. […]"}, "in vivo": {"assay": "in vivo", "details": "dog", "procedure": "Concentrations of SET-M33 in dog plasma samples and the main toxicokinetic parameters were determined. The exposure parameters (AUCt and Cmax) were compared to evaluate dose-dependency, accumulation ratio and sex-related differences. […] Mean SET-M33 plasma levels increased in parallel in males and females. Mean time to maximum SET-M33 concentration (tmax) was after the end of infusion for both periods (days 1 and 7) and sexes, i.e. 30 min post-dose, coherently with intravenous administration. On day 1 and 7, mean AUCt and Cmax values for the low vs. high dose were close to the theoretical ratio of 2.\nBlood samples were taken by direct venepuncture of the jugular vein on days 1 and 7 to determine plasma levels of SET-M33. Sampling times were as follows: Day 1: at 0, 5, 15, 30, 60 and 180 min. Day 7: at 0, 5, 15, 30, 60, 180 min and 24 h after administration. Control animals were only bled once on days 1 and 7 of treatment, 1 h after administration. Blood samples were collected into lithium heparin test tubes and kept in an ice bath until centrifuging (1600 g for 10 min at 2–8 °C). The plasma obtained from each sample was transferred to a fresh polypropylenes test tubes, immediately frozen in dry ice and stored at − 20 °C ± 5."}, "Sprague Dawley rats [2]": {"tested_on": "Sprague Dawley rats", "details": "rat, in vivo, iv, 15 mg/kg/day", "procedure": "Necroscopy and histopathological examinations were performed at the end of treatment and at the end of the recovery period. Macroscopic changes were recorded in the kidneys (pale coloration and a reddened medullary area in almost all males and females from groups on 9 and 15 mg/kg/day) and bladder (distended in a few males of all treated groups). These findings were also recorded at the end of the recovery period affecting all animals dose at 15 mg/kg/day (pale coloration of the kidneys) or one male (distended urinary bladder). […] At the end of the recovery period the mean weight of the spleen (both sexes) and the mean weight of the kidneys and ovaries (females) from animals treated at 15 mg/kg/day were still higher with respect to control group. […] For 15 mg/kg/day group, the changes observed in the kidneys, bone marrow, uterine cervix and vagina were not reversible (see Supplementary Material for images and number of animals affected by these irreversible abnormalities), while the rest of the findings were fully (femorotibial growth plate and duodenum) or partially recovered (heart, ovaries and mammary glands) after 2 weeks of recovery period.\nAll animals underwent necropsy. Descriptions of all macroscopic abnormalities were recorded. […]"}, "Sprague Dawley rats [3]": {"tested_on": "Sprague Dawley rats", "assay": "Dose range finding in rats: haematology, clinical biochemistry, urinalysis", "assay_type": "in vivo, rat", "details": "female rats, 7 days, mean ± SD", "procedure": "Clinical haematology, biochemistry and urinalysis parameters were evaluated in animals in Phase II at the end of the treatment period. A complete list of parameters is reported in Materials and Methods. Administration of SET-M33 at 10 and 20 mg/kg/day for 7 days caused a statistically significant decrease of reticulocytes in males and females. […] There were significant differences in other parameters, such as glucose (males at 10 and 20 mg/kg/day), cholesterol (males at 20 mg/kg/day), triglycerides (females at 20 mg/kg/day), electrolytes, total protein and albumin (males at 20 mg/kg/day). Increased urine volume and lower specific gravity compared to the control group was recorded in both sexes at both doses. […]\nBlood samples were drawn from the retro-orbital plexus of all animals under light isoflurane anaesthesia. […] The following parameters were determined using an ADVIA 120 haematology analyser (Siemens Healthcare): Red blood cell count (RBC), haemoglobin (Hb), haematocrit (Hct), mean corpuscular volume (MCV), mean corpuscular haemoglobin (MCH), mean corpuscular haemoglobin concentration (MCHC), reticulocyte count (absolute and relative) (Retic), platelet count (Plt), total leukocyte count (WBC), neutrophils (N), lymphocytes (L), monocytes (M), eosinophils (E), basophils (B), large unstained cells (LUC). […]"}},
  "note": "Positions of bridges follow the written chain, without caps; N, C: chain ends. Non-standard residues stand in square brackets, D forms with d. Residues, ends and D or L forms follow the SMILES beside them. Chains are numbered I, II in the order given. βAla = NCCC(=O)O",
  "data": [
    {"smiles": "CC[C@H](C)[C@H](NC(=O)[C@H](CCCCN)NC(=O)[C@@H](N)CCCCN)C(=O)N[C@@H](CCCNC(=N)N)C(=O)N[C@H](C(=O)N[C@@H](CCCNC(=N)N)C(=O)N[C@@H](CC(C)C)C(=O)N[C@@H](CO)C(=O)N[C@@H](C)C(=O)NCCCC[C@H](NC(=O)[C@H](C)NC(=O)[C@H](CO)NC(=O)[C@H](CC(C)C)NC(=O)[C@H](CCCNC(=N)N)NC(=O)[C@@H](NC(=O)[C@H](CCCNC(=N)N)NC(=O)[C@@H](NC(=O)[C@H](CCCCN)NC(=O)[C@@H](N)CCCCN)[C@@H](C)CC)C(C)C)C(=O)NCCCC[C@H](NC(=O)[C@H](CCCCNC(=O)[C@H](C)NC(=O)[C@H](CO)NC(=O)[C@H](CC(C)C)NC(=O)[C@H](CCCNC(=N)N)NC(=O)[C@@H](NC(=O)[C@H](CCCNC(=N)N)NC(=O)[C@@H](NC(=O)[C@H](CCCCN)NC(=O)[C@@H](N)CCCCN)[C@@H](C)CC)C(C)C)NC(=O)[C@H](C)NC(=O)[C@H](CO)NC(=O)[C@H](CC(C)C)NC(=O)[C@H](CCCNC(=N)N)NC(=O)[C@@H](NC(=O)[C@H](CCCNC(=N)N)NC(=O)[C@@H](NC(=O)[C@H](CCCCN)NC(=O)[C@@H](N)CCCCN)[C@@H](C)CC)C(C)C)C(=O)NCCC(=O)O)C(C)C", "note": "[SET-M33] (I: H-KKIRVRLSAKK[βAla]-OH / II: H-KKIRVRLSAK / III: H-KKIRVRLSA / IV: H-KKIRVRLSA; amide I:10-IV:C, I:11-II:C, II:10-III:C (inferred); N-terminus and C-terminus assumed)", "values": [
      {"measurement": "female body weight", "setting": "Sprague Dawley rats [1]; female rats, 10 and 20 mg/kg/day iv, 7 days (Phase II)", "result": "unaffected by treatment"},
      {"measurement": "survival", "setting": "Sprague Dawley rats [1]; rats, Phase I 20 mg/kg/day 3 days and Phase II 10 and 20 mg/kg/day 7 days, iv bolus", "result": "All animals survived both phases"},
      {"measurement": "tmax", "setting": "in vivo; both sexes, beagle, iv", "result": 30, "unit": "min"},
      {"measurement": "quantifiable plasma concentrations until, after the start of infusion", "setting": "in vivo; 8 mg/kg/day", "result": "up to 24.5 h"},
      {"measurement": "cervical and vaginal epithelial atrophy, incidence", "setting": "Sprague Dawley rats [2]", "result": "1 out of 5"},
      {"measurement": "Phos, inorganic phosphorus", "setting": "Sprague Dawley rats [3]; 10 mg/kg/day iv", "result": "1.96 ± 0.187", "unit": "mmol/L"},
      {"measurement": "Phos, inorganic phosphorus", "setting": "Sprague Dawley rats [3]; 20 mg/kg/day iv", "result": "2.05 ± 0.26", "unit": "mmol/L"}
    ]}
  ]
}
